Literature values as cited in patent US6979468B1, “Oral composition and method for the treatment of inflammatory cutaneous disorders” (Sirius Laboratories, priority 2002, dated 2005).

Test system: acne vulgaris
Conditions: administered orally, 100–600 milligrams per day in divided doses taken 2 to 4 times per day

Question: Which “effect on acne lesions” value does the source give for `NC(=O)c1cccnc1` [nicotinamide] here?
Answer: decrease inflammatory lesions such as papules, pustules, and cysts, but not comedones
